In PubChem BioAssay AID2060625 (Molecular Pharmacology Branch, DTP, NCI, 2025):

Test system: 186277-243-T-J2-PDC spheroids with HUVEC/MSC, viability
Test: Anticancer human tumor 186277-243-T-J2-PDC patient-derived colon adenocarcinoma cell line growth inhibition [CLK]
Details: for IC50: curve of first compound; for viability, T/C: stronger effect = lower value
Outline: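 Multi-cell-type spheroids combined patient-derived tumor cells with HUVEC endothelial cells and human mesenchymal stem cells. Paired agents were dosed in half-log steps down from about clinical Cmax, or from 10 microM where Cmax was unknown.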

[1] = second compound 0.0316 µM, first compound 0.0316 µM
[2] = second compound 0.0316 µM, first compound 0.1 µM
[3] = second compound 0.0316 µM, first compound 0.316 µM
[4] = second compound 0.0316 µM, first compound 1 µM
[5] = second compound 0.0316 µM, first compound 3.16 µM
[6] = second compound 0.0316 µM, first compound 10 µM
[7] = second compound 0.1 µM, first compound 0.0316 µM
[8] = second compound 0.1 µM, first compound 0.1 µM
[9] = second compound 0.1 µM, first compound 0.316 µM
[10] = second compound 0.1 µM, first compound 1 µM
[11] = second compound 0.1 µM, first compound 3.16 µM
[12] = second compound 0.1 µM, first compound 10 µM
[13] = second compound 0.316 µM, first compound 0.0316 µM
[14] = second compound 0.316 µM, first compound 0.1 µM
[15] = second compound 0.316 µM, first compound 0.316 µM
[16] = second compound 0.316 µM, first compound 1 µM
[17] = second compound 0.316 µM, first compound 3.16 µM
[18] = second compound 0.316 µM, first compound 10 µM
[19] = second compound 1 µM, first compound 0.0316 µM
[20] = second compound 1 µM, first compound 0.1 µM
[21] = second compound 1 µM, first compound 0.316 µM
[22] = second compound 1 µM, first compound 1 µM
[23] = second compound 1 µM, first compound 3.16 µM
[24] = second compound 1 µM, first compound 10 µM
[25] = second compound 3.16 µM, first compound 0.0316 µM
[26] = second compound 3.16 µM, first compound 0.1 µM
[27] = second compound 3.16 µM, first compound 0.316 µM
[28] = second compound 3.16 µM, first compound 1 µM
[29] = second compound 3.16 µM, first compound 3.16 µM
[30] = second compound 3.16 µM, first compound 10 µM
[31] = second compound 10 µM, first compound 0.0316 µM
[32] = second compound 10 µM, first compound 0.1 µM
[33] = second compound 10 µM, first compound 0.316 µM
[34] = second compound 10 µM, first compound 1 µM
[35] = second compound 10 µM, first compound 3.16 µM
[36] = second compound 10 µM, first compound 10 µM
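Also: compound exposure lasted seven days before readout.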
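For viability, T/C in this document: 100% = DMSO vehicle control wells.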

Compound: Nc1ccn(C2OC(CO)C(O)C2(F)F)c(=O)n1 (centres undefined) + CNC(=O)c1ccc(Nc2nc(OC3CCCC3)c3c(-c4ccc5nc(C)oc5c4)c[nH]c3n2)c(OC)c1
- IC50 (second compound 0.0316 µM): < 31.6 nM
- IC50 (second compound 0.1 µM): < 31.6 nM
- IC50 (second compound 0.316 µM): < 31.6 nM
- IC50 (second compound 1 µM): < 31.6 nM
- IC50 (second compound 3.16 µM): < 31.6 nM
- IC50 (second compound 10 µM): < 31.6 nM
- viability, T/C [1]: 13.3%
- viability, T/C [2]: 10.8%
- viability, T/C [3]: 12%
- viability, T/C [4]: 14.9%
- viability, T/C [5]: 14.7%
- viability, T/C [6]: 13.9%
- viability, T/C [7]: 15.8%
- viability, T/C [8]: 13.3%
- viability, T/C [9]: 13.3%
- viability, T/C [10]: 13.3%
- viability, T/C [11]: 14.8%
- viability, T/C [12]: 12.4%
- viability, T/C [13]: 9.79%
- viability, T/C [14]: 9.9%
- viability, T/C [15]: 9.39%
- viability, T/C [16]: 11.3%
- viability, T/C [17]: 9.88%
- viability, T/C [18]: 8.65%
- viability, T/C [19]: 9.1%
- viability, T/C [20]: 8.33%
- viability, T/C [21]: 8.5%
- viability, T/C [22]: 8.25%
- viability, T/C [23]: 5.96%
- viability, T/C [24]: 6.34%
- viability, T/C [25]: 8.6%
- viability, T/C [26]: 7.49%
- viability, T/C [27]: 7.26%
- viability, T/C [28]: 8.76%
- viability, T/C [29]: 6.3%
- viability, T/C [30]: 6.38%
- viability, T/C [31]: 9.98%
- viability, T/C [32]: 9.04%
- viability, T/C [33]: 6.83%
- viability, T/C [34]: 7.74%
- viability, T/C [35]: 6.77%
- viability, T/C [36]: 5.84%

Compound: O=c1[nH]cc(F)c(=O)[nH]1 + CNC(=O)c1ccc(Nc2nc(OC3CCCC3)c3c(-c4ccc5nc(C)oc5c4)c[nH]c3n2)c(OC)c1
- IC50 (second compound 0.0316 µM): > 10000 nM
- IC50 (second compound 0.1 µM): 5330 nM
- IC50 (second compound 0.316 µM): < 31.6 nM
- IC50 (second compound 1 µM): < 31.6 nM
- IC50 (second compound 3.16 µM): < 31.6 nM
- IC50 (second compound 10 µM): < 31.6 nM
- viability, T/C [1]: 97.9%
- viability, T/C [2]: 95.6%
- viability, T/C [3]: 109%
- viability, T/C [4]: 102%
- viability, T/C [5]: 86.2%
- viability, T/C [6]: 56.8%
- viability, T/C [7]: 70.6%
- viability, T/C [8]: 66.2%
- viability, T/C [9]: 64.2%
- viability, T/C [10]: 61.5%
- viability, T/C [11]: 58.1%
- viability, T/C [12]: 42.1%
- viability, T/C [13]: 43.7%
- viability, T/C [14]: 43.6%
- viability, T/C [15]: 39.4%
- viability, T/C [16]: 41%
- viability, T/C [17]: 37.3%
- viability, T/C [18]: 25.6%
- viability, T/C [19]: 30.9%
- viability, T/C [20]: 29.4%
- viability, T/C [21]: 28.1%
- viability, T/C [22]: 28.6%
- viability, T/C [23]: 24.9%
- viability, T/C [24]: 15%
- viability, T/C [25]: 27.6%
- viability, T/C [26]: 26.9%
- viability, T/C [27]: 24.8%
- viability, T/C [28]: 28.3%
- viability, T/C [29]: 24.4%
- viability, T/C [30]: 12.1%
- viability, T/C [31]: 30.1%
- viability, T/C [32]: 30.3%
- viability, T/C [33]: 29.4%
- viability, T/C [34]: 29.2%
- viability, T/C [35]: 27.6%
- viability, T/C [36]: 12%
